PubChem BioAssay (NCI)
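Values below derive from 48-hour exposures of cells grown in 96-well plates, with endpoints linearly interpolated between the two concentrations bracketing the appropriate inhibition level. At the TGI there is no net growth.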

Experiments:
Assay in all cases: inhibition of tumour cell growth, NCI panel, 48 h
A498 renal = tested on: A498 renal
NCI-H226 lung = tested on: NCI-H226 lung
SK-OV-3 ovarian = tested on: SK-OV-3 ovarian
UO-31 renal = tested on: UO-31 renal
786-0 renal = tested on: 786-0 renal
PC-3 prostate = tested on: PC-3 prostate
SK-MEL-28 melanoma = tested on: SK-MEL-28 melanoma
SF-295 CNS = tested on: SF-295 CNS
SNB-19 CNS = tested on: SNB-19 CNS
T-47D breast = tested on: T-47D breast
U251 CNS = tested on: U251 CNS
SN12C renal = tested on: SN12C renal
M14 melanoma = tested on: M14 melanoma
CCRF-CEM leukemia = tested on: CCRF-CEM leukemia
HCT-116 colon = tested on: HCT-116 colon
NCI-H522 lung = tested on: NCI-H522 lung
NCI/ADR-RES ovarian = tested on: NCI/ADR-RES ovarian
NCI-H460 lung = tested on: NCI-H460 lung
MDA-MB-435 = tested on: MDA-MB-435
SK-MEL-2 melanoma = tested on: SK-MEL-2 melanoma
OVCAR-3 ovarian = tested on: OVCAR-3 ovarian
MDA-N = tested on: MDA-N
SR leukemia = tested on: SR leukemia
KM12 colon = tested on: KM12 colon
DU-145 prostate = tested on: DU-145 prostate
UACC-257 melanoma = tested on: UACC-257 melanoma
SNB-75 CNS = tested on: SNB-75 CNS
HCC-2998 colon = tested on: HCC-2998 colon
HCT-15 colon = tested on: HCT-15 colon
A549 NSCLC = tested on: A549 NSCLC
HT29 colon = tested on: HT29 colon
SW-620 colon = tested on: SW-620 colon
HOP-92 NSCLC = tested on: HOP-92 NSCLC
SF-539 CNS = tested on: SF-539 CNS
OVCAR-4 ovarian = tested on: OVCAR-4 ovarian
MOLT-4 leukemia = tested on: MOLT-4 leukemia
MALME-3M melanoma = tested on: MALME-3M melanoma
OVCAR-8 ovarian = tested on: OVCAR-8 ovarian
OVCAR-5 ovarian = tested on: OVCAR-5 ovarian
ACHN renal = tested on: ACHN renal
RXF 393 renal = tested on: RXF 393 renal
UACC-62 melanoma = tested on: UACC-62 melanoma
MCF7 breast = tested on: MCF7 breast
COLO 205 colon = tested on: COLO 205 colon
HS 578T breast = tested on: HS 578T breast
BT-549 breast = tested on: BT-549 breast
TK-10 renal = tested on: TK-10 renal
LOX IMVI melanoma = tested on: LOX IMVI melanoma
SF-268 CNS = tested on: SF-268 CNS
HL-60(TB) leukemia = tested on: HL-60(TB) leukemia
CAKI-1 renal = tested on: CAKI-1 renal
EKVX NSCLC = tested on: EKVX NSCLC
IGROV1 ovarian = tested on: IGROV1 ovarian
HOP-62 NSCLC = tested on: HOP-62 NSCLC
MDA-MB-231 breast = tested on: MDA-MB-231 breast
SK-MEL-5 melanoma = tested on: SK-MEL-5 melanoma
NCI-H23 lung = tested on: NCI-H23 lung
RPMI-8226 leukemia = tested on: RPMI-8226 leukemia
K-562 leukemia = tested on: K-562 leukemia

Measured: TGI

FC(F)(F)c1ccc2c(c1)nc(-c1ccc(Cl)cc1)n2CC1CCCN2CCCCC12 (stereo not drawn)
27.9 µM: ACHN renal | BT-549 breast
39.8 µM: T-47D breast
38.1 µM: SW-620 colon
29.1 µM: HOP-92 NSCLC
28.7 µM: UACC-257 melanoma
29.2 µM: NCI/ADR-RES ovarian | HL-60(TB) leukemia
30.2 µM: SK-MEL-2 melanoma
41.8 µM: KM12 colon
23.4 µM: EKVX NSCLC
27.1 µM: SK-MEL-5 melanoma
21.7 µM: SNB-75 CNS
22.9 µM: UO-31 renal
21.4 µM: OVCAR-5 ovarian
27.4 µM: HCT-116 colon
23.7 µM: PC-3 prostate
24.4 µM: COLO 205 colon
35.8 µM: MDA-MB-435
33.6 µM: OVCAR-3 ovarian
31.2 µM: SNB-19 CNS
27.8 µM: IGROV1 ovarian
31.4 µM: NCI-H226 lung | NCI-H460 lung
29.8 µM: MALME-3M melanoma | MCF7 breast | LOX IMVI melanoma
21.3 µM: SK-OV-3 ovarian
29.9 µM: MDA-N
28.6 µM: HOP-62 NSCLC
30.8 µM: SK-MEL-28 melanoma
33.8 µM: SR leukemia
28.8 µM: HCT-15 colon | SF-539 CNS
36.3 µM: HS 578T breast
20.3 µM: MDA-MB-231 breast
31.7 µM: SF-295 CNS
27 µM: 786-0 renal
27.3 µM: U251 CNS
29.5 µM: A549 NSCLC
30.1 µM: OVCAR-8 ovarian | RXF 393 renal
28 µM: M14 melanoma
26 µM: SN12C renal
13 µM: MOLT-4 leukemia
35.6 µM: OVCAR-4 ovarian
26.5 µM: NCI-H522 lung
28.5 µM: TK-10 renal
19 µM: HT29 colon
33.3 µM: CAKI-1 renal
27.5 µM: A498 renal | SF-268 CNS
30.4 µM: DU-145 prostate
28.1 µM: UACC-62 melanoma
36 µM: CCRF-CEM leukemia
26.7 µM: HCC-2998 colon

CCOC(=O)C(CCN1CCC2(CC1)C(=O)N(C)CN2c1ccccc1)C(=O)OCC
> 100 µM: all assays above

O=C(O)CCSC(CC1(c2ccc(Cl)cc2)NC(=O)CCS1)c1ccccc1 (stereo not drawn)
42.2 µM: U251 CNS
41.6 µM: MALME-3M melanoma
> 59.4 µM: ACHN renal
14.1 µM: KM12 colon
> 60 µM: T-47D breast
64.7 µM: NCI-H460 lung
46.9 µM: EKVX NSCLC
37.3 µM: PC-3 prostate | CAKI-1 renal
49.1 µM: UACC-257 melanoma
> 54.8 µM: UO-31 renal | RXF 393 renal
38.4 µM: SF-268 CNS
49.3 µM: NCI/ADR-RES ovarian
50.1 µM: NCI-H23 lung
> 53.8 µM: DU-145 prostate
43.2 µM: SF-295 CNS
41.5 µM: OVCAR-3 ovarian
41.7 µM: NCI-H522 lung | SW-620 colon
> 56.1 µM: SNB-19 CNS
31.8 µM: MDA-N
24.8 µM: CCRF-CEM leukemia
42.9 µM: A498 renal
31.7 µM: IGROV1 ovarian
44.1 µM: HOP-62 NSCLC
32.3 µM: SNB-75 CNS
48 µM: SK-MEL-5 melanoma
46.6 µM: MDA-MB-231 breast
39.6 µM: HCC-2998 colon
37 µM: OVCAR-5 ovarian
29.8 µM: MDA-MB-435
38.1 µM: HT29 colon
29.3 µM: OVCAR-4 ovarian
40.8 µM: NCI-H226 lung
39.7 µM: UACC-62 melanoma
17.4 µM: HCT-116 colon
20.9 µM: 786-0 renal
38.7 µM: SK-MEL-2 melanoma
> 63.1 µM: A549 NSCLC
62.2 µM: HOP-92 NSCLC
38 µM: SK-OV-3 ovarian
> 55.3 µM: MCF7 breast
33.4 µM: SN12C renal | HS 578T breast
> 60.6 µM: COLO 205 colon
32.1 µM: HCT-15 colon
50.9 µM: M14 melanoma
31.1 µM: BT-549 breast
36 µM: TK-10 renal
37.7 µM: SK-MEL-28 melanoma
39.5 µM: OVCAR-8 ovarian
27.3 µM: SF-539 CNS
> 100 µM: all other assays above

CCCC(=O)N1CCN(c2ccc3c(c2)OC(C)O3)CC1 (stereo not drawn)
not listed: SK-MEL-2 melanoma | LOX IMVI melanoma | HL-60(TB) leukemia | RPMI-8226 leukemia
> 100 µM: all other assays above

CC(Oc1ccc(Cl)cc1Cl)C(=O)NN1C(=O)CSC1c1ccccc1 (stereo not drawn)
64.1 µM: NCI-H226 lung
40 µM: CAKI-1 renal
77.9 µM: HL-60(TB) leukemia
46.5 µM: BT-549 breast
19.2 µM: SR leukemia
83.8 µM: HOP-92 NSCLC
> 100 µM: all other assays above

[N-]=[N+]=CC(=O)OC1Cc2ccccc2C1
> 35.3 µM: CAKI-1 renal
> 31.6 µM: CCRF-CEM leukemia
81.9 µM: ACHN renal
35.8 µM: UO-31 renal
> 84.2 µM: DU-145 prostate
> 100 µM: all other assays above

CCC(=O)O[C@H]1CC[C@H]2[C@@H]3CCC4=C/C(=N/OC(=O)c5cccc6cc7ccccc7nc56)CC[C@]4(C)[C@H]3CC[C@]12C
67.6 µM: T-47D breast
31.5 µM: SK-MEL-5 melanoma
not listed: UO-31 renal | SF-295 CNS | TK-10 renal
> 100 µM: all other assays above
